Where a chain is given by its changes, count along the chain named.
How the values were obtained:
Details in all cases: pH 7.5
[1] = target: T1, Tyrosyl-DNA phosphodiesterase 2 (Homo sapiens, UniProt O95551); assay: TDP2 Assays with Whole Cell Extracts
T1 sequence (O95551 whole entry): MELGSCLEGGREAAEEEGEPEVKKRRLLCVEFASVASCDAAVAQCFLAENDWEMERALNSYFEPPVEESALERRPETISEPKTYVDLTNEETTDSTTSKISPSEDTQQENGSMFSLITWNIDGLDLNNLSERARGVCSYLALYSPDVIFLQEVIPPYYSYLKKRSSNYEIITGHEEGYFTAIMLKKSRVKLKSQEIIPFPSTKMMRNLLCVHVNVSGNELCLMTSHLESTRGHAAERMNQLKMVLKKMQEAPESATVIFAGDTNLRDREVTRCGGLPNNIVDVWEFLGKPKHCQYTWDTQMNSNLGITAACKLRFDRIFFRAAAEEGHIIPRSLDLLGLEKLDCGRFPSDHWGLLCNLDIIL
Procedure: Cell pellets were then resuspended in 100 uL of CelLytic M cell lysis reagent (SIGMA-Aldrich C2978). After 15 min on ice, lysates were centrifuged at 12 000g for 10 min, and supernatants were transferred to a new tube. Protein concentrations were determined using a Nanodrop spectrophotometer (Invitrogen), and whole cell extracts were stored at -80 °C. […] Reactions were terminated and samples analyzed.

[2] = target: Tyrosyl-DNA phosphodiesterase 2 [E242G,S244A,Q278R,I281T,K282R,R316G,P318T,Y321C] (Mus musculus, UniProt Q9JJX7, E242G/I281T/K282R/P318T/Q278R/R316G/S244A/Y321C); assay: Recombinant TDP2 Assay
Procedure: (§1) TDP2 reactions were carried out as described previously23 with the following modifications.

[3] = target: T1, Tyrosyl-DNA phosphodiesterase 2; assay: Recombinant TDP2 Assay
Procedure: as §1

[4] = target: T2, Tyrosyl-DNA phosphodiesterase 2 (Mus musculus, UniProt Q9JJX7); assay: Recombinant TDP2 Assay
T2 sequence (Q9JJX7 whole entry): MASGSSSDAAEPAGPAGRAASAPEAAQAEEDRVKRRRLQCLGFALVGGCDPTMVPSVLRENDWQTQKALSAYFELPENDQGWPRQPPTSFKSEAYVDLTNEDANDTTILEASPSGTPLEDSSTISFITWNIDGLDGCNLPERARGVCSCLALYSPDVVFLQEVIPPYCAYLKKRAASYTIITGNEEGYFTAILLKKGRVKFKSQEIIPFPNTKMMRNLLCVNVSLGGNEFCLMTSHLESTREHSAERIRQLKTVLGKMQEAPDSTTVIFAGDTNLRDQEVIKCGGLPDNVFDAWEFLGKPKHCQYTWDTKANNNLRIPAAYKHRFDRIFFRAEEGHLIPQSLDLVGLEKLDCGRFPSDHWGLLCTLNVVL
Procedure: as §1

[5] = target: T3, Tyrosyl-DNA phosphodiesterase 2 [E242G,S244A,Q278R,I281T,K282R,R316G,P318T,Y321CH323L] (Mus musculus, UniProt Q9JJX7, E242G/I281T/K282R/P318T/Q278R/R316G/S244A/Y321CH323L); assay: Recombinant TDP2 Assay
T3 sequence (Q9JJX7 whole entry): T2 sequence (Q9JJX7 whole entry) with E242G, S244A, Q278R, I281T, K282R, R316G, P318T, Y321C, H323L
Procedure: as §1

Chain of Tyrosyl-DNA phosphodiesterase 2 [E242G,S244A,Q278R,I281T,K282R,R316G,P318T,Y321C] (Q9JJX7 whole entry E242G/S244A/Q278R/I281T/K282R/R316G/P318T/Y321C): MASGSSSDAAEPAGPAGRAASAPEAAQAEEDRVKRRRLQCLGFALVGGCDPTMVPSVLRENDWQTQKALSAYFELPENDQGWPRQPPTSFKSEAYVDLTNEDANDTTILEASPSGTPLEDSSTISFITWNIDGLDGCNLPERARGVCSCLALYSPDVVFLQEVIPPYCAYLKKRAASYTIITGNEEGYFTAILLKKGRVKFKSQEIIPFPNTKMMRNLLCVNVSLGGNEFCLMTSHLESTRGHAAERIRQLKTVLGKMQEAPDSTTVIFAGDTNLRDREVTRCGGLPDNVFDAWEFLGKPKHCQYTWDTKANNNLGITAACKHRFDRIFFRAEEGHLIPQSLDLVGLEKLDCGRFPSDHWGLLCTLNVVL

| Compound | IC50 [1] | IC50 [2] | IC50 [3] | IC50 [4] | IC50 [5] |
| --- | --- | --- | --- | --- | --- |
| O=c1nc2n(-c3ccc(O)cc3)c3cc(Cl)ccc3cc-2c(=O)[nH]1 | 2.3 µM | 35 µM | 3.9 µM | > 111 µM | 4 µM |
| N#Cc1ccc2cc3c(=O)[nH]c(=O)nc-3n(-c3ccc(O)cc3)c2c1 |  | 1.1 µM |  | > 111 µM | 0.17 µM |

From BindingDB's records for doi:10.1021/acschembio.5b01047 (National Institutes of Health, 2016)
